These compounds were tested against Serum paraoxonase/arylesterase 1 (Homo sapiens) (UniProt P27169) (assay: Activity at human recombinant PON1 assessed as hydrolysis of lactone ring at 1 mM by Ellman's method).
Serum paraoxonase/arylesterase 1 (Homo sapiens), sequence (P27169 whole entry): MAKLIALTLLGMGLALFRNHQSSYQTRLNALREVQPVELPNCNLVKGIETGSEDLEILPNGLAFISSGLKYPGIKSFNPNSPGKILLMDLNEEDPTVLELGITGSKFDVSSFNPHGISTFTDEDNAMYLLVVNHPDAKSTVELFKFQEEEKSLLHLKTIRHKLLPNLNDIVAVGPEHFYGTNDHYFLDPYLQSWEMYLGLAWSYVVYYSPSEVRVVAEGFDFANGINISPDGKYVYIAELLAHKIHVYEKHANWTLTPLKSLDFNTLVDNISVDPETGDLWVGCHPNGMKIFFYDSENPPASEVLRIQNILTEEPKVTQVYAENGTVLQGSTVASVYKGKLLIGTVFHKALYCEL

| SMILES | Activity |
| --- | --- |
| O=C1C[C@H]2C=CC[C@H]2O1 | 0.83 µmol/min/mg |
| C[C@H]1CC(=O)O1 | 3.83 µmol/min/mg |
| O=C(O)Cc1ccccc1 | 112 µmol/min/mg |
| O=C1C[C@@H]2C=CC[C@@H]2O1 | 1.67 µmol/min/mg |

Now from value to compound:

| Activity | SMILES |
| --- | --- |
| 33 µmol/min/mg | O=C1Cc2cc(O)ccc2O1 |
| 18.3 µmol/min/mg | CC1=CCC(=O)O1 |
| 13.6 µmol/min/mg | O=C1Cc2ccccc2O1 |

Reference: ChEMBL document CHEMBL1155779, “Characterization of the PON1 active site using modeling simulation, in relation to PON1 lactonase activity” (Bioorg Med Chem, 2008)
